Assay results as given in patent publication US4736051A, “Process for the preparation of an alkali metal salt of a diester phosphoric acid” (Kao Corporation, priority 1985, dated 1988).

Legend:
Type in all cases: physicochemical
[1] = Phase diagram in aqueous system (FIG. 1)
[2] = Hygroscopicity of isolated powder; conditions: white powder
[3] = Lather amount (lather volume) of 5% aqueous solution of surface active agent; conditions: 100 g, 1000 rpm, 30 seconds agitation, 10 seconds standing, 40° C.
Experimental: The lather amount was measured according to the following manner. An aqueous solution containing 5% of surface active agent is prepared and 100 g of the aqueous solution is poured into a measuring cylinder, followed by agitation for 30 seconds by agitator. After agitation, the aqueous solution is placed as it is for 10 seconds, followed by subjecting to measurement of the lather volume. The revolution of the agitator is 1000 rpm and the agitator paddles are reversely rotated every 5 seconds. Temperature was maintained 40° C. during the measurement.

Craft point = experiment: Craft point

hygroscopicity [2]	Compound	phase diagram in aqueous systems [1]	lather amount (lather Vol. ml) [3] [mL]	craft point (°C.) (Craft point) [°C]
–	C=C(C)C(=O)OCC(O)COP(=O)([O-])OCCCCCCCCCCCC.[Na+] (stereo not drawn) [Compound (XIV), sodium dodecyl 2-hydroxy-3-methacryloyloxypropyl phosphate]	liquid crystals	–	–
very hygroscopic	CCCCCCCCCCCCOP(=O)([O-])OCC(O)C[N+](C)(C)C (stereo not drawn) [Example 14]	–	–	–
–	CCCCCCCCCCCCOP(=O)([O-])[O-].[Na+].[Na+] [Sodium 1 dodecyl phosphate]	–	260	32
–	Sodium 2 dodecyl phosphate	–	230	20
